Test results: patent publication US20180008573A1, “METHODS AND COMPOSITIONS FOR REDUCING DAMAGE ASSOCIATED WITH OXIDATIVE PHOSPHORYLATION” (USANA Health Sciences, Inc., priority 2016, published 2018)

Columns and labels:
human PPARγ = biological target: T1, human PPARγ (Homo sapiens, UniProt P37231); experiment: PPARγ agonist reporter assay (Gal4 hybrid receptor, luciferase, CHO cells); assay type: cell-based
T1 construct: expressed in transfected cells; host or cells: CHO
T1 sequence (P37231 238-503 limits assumed): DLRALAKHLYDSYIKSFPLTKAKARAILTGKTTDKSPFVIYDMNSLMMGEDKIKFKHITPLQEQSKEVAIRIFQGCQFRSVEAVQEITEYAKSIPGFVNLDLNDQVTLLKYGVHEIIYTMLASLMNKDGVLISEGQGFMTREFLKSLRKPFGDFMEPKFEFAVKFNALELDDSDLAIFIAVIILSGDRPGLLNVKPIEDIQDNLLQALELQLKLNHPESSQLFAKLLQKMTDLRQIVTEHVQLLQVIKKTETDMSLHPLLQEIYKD

NF-κB reporter cells = experiment: Live cell multiplex assay in the NF-κB antagonist assay; assay type: cell-based, human
Method: A vehicle control was prepared.

human PPARδ = biological target: T2, human PPARδ (Homo sapiens, UniProt Q03181); experiment: PPARδ agonist reporter assay (Gal4 hybrid receptor, luciferase, CHO cells); assay type: cell-based
T2 construct: expressed in transfected cells; host or cells: CHO
T2 sequence (Q03181 211-439 limits assumed): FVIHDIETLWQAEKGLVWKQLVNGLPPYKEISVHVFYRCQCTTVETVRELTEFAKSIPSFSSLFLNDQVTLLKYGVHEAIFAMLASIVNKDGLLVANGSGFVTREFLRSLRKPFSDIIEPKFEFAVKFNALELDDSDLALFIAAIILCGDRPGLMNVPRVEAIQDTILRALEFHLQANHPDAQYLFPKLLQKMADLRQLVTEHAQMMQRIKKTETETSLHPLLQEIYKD

Nrf2 = biological target: T3, Nrf2 (Homo sapiens, UniProt Q16236); experiment: Nrf2 agonist reporter assay (native receptor, ARE-luciferase, CV1 cells); assay type: cell-based; set-up: comprising either the native receptor (Nrf2 and NF-κB); expressed in transfected cells; host or cells: CV1
T3 sequence (Q16236 1-605): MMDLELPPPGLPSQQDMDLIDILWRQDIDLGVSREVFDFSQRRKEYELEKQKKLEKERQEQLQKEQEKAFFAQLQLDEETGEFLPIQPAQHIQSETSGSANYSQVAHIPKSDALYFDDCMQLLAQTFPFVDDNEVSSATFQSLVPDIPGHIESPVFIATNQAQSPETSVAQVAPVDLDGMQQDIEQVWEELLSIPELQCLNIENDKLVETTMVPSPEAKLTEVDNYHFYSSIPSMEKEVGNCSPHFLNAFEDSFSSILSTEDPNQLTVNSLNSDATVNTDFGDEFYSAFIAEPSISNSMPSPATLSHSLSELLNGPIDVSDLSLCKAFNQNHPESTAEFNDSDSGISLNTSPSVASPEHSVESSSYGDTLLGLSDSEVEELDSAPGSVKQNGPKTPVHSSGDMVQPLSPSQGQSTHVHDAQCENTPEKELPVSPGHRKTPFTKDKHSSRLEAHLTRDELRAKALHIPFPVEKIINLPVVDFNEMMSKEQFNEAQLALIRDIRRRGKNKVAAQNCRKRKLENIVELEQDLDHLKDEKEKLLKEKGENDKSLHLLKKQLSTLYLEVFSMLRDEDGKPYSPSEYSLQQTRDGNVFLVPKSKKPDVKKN

human NF-κB = experiment: NF-κB antagonist reporter assay (NF-κB GRE-luciferase, HEK293 cells); assay type: cell-based;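 further: reporter cells carry native NF-κB receptor with firefly luciferase under upstream response elements, with a vehicle control included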
human PPARα = biological target: T4, human PPARα (Homo sapiens, UniProt Q07869); experiment: PPARα agonist reporter assay (Gal4 hybrid receptor, luciferase, CHO cells); assay type: cell-based
T4 construct: expressed in transfected cells; host or cells: CHO
T4 sequence (Q07869 239-466 limits assumed): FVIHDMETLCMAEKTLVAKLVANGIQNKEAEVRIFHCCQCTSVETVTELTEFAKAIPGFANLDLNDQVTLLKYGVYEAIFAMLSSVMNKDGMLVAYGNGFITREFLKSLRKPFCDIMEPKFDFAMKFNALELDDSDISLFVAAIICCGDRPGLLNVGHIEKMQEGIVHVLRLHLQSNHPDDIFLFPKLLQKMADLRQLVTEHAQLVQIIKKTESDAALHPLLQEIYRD

**Q.** What does the source list for `COc1ccc([C@@H]2CC(=O)c3c(O)cc(O)cc3O2)cc1O` [Hesperetin, (S)-2,3-Dihydro-5,7-dihydroxy-2-(3-hydroxy-4-methoxyphenyl)-4H-1-benzopyran-4-one]?
**A.** PPARγ Fold-Activation (human PPARγ; 0.043 μg/ml active ingredient): 1.0 fold; PPARγ Fold-Activation (human PPARγ; 0.389 μg/ml active ingredient): 1.1 fold; PPARγ Fold-Activation (human PPARγ; 1.167 μg/ml active ingredient): 1.1 fold; PPARγ Fold-Activation (human PPARγ; 3.5 μg/ml active ingredient): 0.55 fold; NF-κB % Live Cell (NF-κB reporter cells; 0.043 μg/ml active ingredient): 98%; NF-κB % Live Cell (NF-κB reporter cells; 0.389 μg/ml active ingredient): 99%; NF-κB % Live Cell (NF-κB reporter cells; 1.167 μg/ml active ingredient): 98%; NF-κB % Live Cell (NF-κB reporter cells; 3.5 μg/ml active ingredient): 96%; PPARδ Fold-Activation (human PPARδ; 0.043 μg/ml active ingredient): 1.1 fold; PPARδ Fold-Activation (human PPARδ; 0.389 μg/ml active ingredient): 1.0 fold; PPARδ Fold-Activation (human PPARδ; 1.167 μg/ml active ingredient): 1.1 fold; PPARδ Fold-Activation (human PPARδ; 3.5 μg/ml active ingredient): 0.89 fold; Nrf2 Fold-Activation (Nrf2; 0.043 μg/ml active ingredient): 1.4 fold; Nrf2 Fold-Activation (Nrf2; 0.389 μg/ml active ingredient): 1.3 fold; Nrf2 Fold-Activation (Nrf2; 1.167 μg/ml active ingredient): 1.5 fold; Nrf2 Fold-Activation (Nrf2; 3.5 μg/ml active ingredient): 0.94 fold; NF-κB % Inhibition (human NF-κB; 0.043 μg/ml active ingredient): −11%; NF-κB % Inhibition (human NF-κB; 0.389 μg/ml active ingredient): −2.1%; NF-κB % Inhibition (human NF-κB; 1.167 μg/ml active ingredient): 14%; NF-κB % Inhibition (human NF-κB; 3.5 μg/ml active ingredient): 39%; PPARα Fold-Activation (human PPARα; 0.043 μg/ml active ingredient): 1.4 fold; PPARα Fold-Activation (human PPARα; 0.389 μg/ml active ingredient): 1.2 fold; PPARα Fold-Activation (human PPARα; 1.167 μg/ml active ingredient): 1.0 fold; PPARα Fold-Activation (human PPARα; 3.5 μg/ml active ingredient): 0.79 fold

**Q.** `O=C(O[C@@H]1Cc2c(O)cc(O)cc2O[C@@H]1c1cc(O)c(O)c(O)c1)c1cc(O)c(O)c(O)c1` [EGCG, epigallocatechin gallate] was tested. Which “NF-κB % Live Cell” value (NF-κB reporter cells; 0.033 μg/ml active ingredient) did it give?
**A.** 102%

**Q.** What about the “NF-κB % Live Cell” value (NF-κB reporter cells; 0.098 μg/ml active ingredient) of the same compound?
**A.** 101%

**Q.** What about the “NF-κB % Live Cell” value (NF-κB reporter cells; 0.30 μg/ml active ingredient) of the same compound?
**A.** 105%

**Q.** And the “NF-κB % Live Cell” value (NF-κB reporter cells; 0.89 μg/ml active ingredient)?
**A.** 104%

**Q.** What about the “NF-κB % Live Cell” value (NF-κB reporter cells; 2.67 μg/ml active ingredient) of the same compound?
**A.** 106%

**Q.** And the “NF-κB % Live Cell” value (NF-κB reporter cells; 8 μg/ml active ingredient)?
**A.** 107%

**Q.** What about the “NF-κB % Inhibition” value (human NF-κB; 0.033 μg/ml active ingredient) of the same compound?
**A.** 10%

**Q.** And the “NF-κB % Inhibition” value (human NF-κB; 0.098 μg/ml active ingredient)?
**A.** 18%

**Q.** And the “NF-κB % Inhibition” value (human NF-κB; 0.30 μg/ml active ingredient)?
**A.** 0.10%

**Q.** And the “NF-κB % Inhibition” value (human NF-κB; 0.89 μg/ml active ingredient)?
**A.** 8.4%

**Q.** And the “NF-κB % Inhibition” value (human NF-κB; 2.67 μg/ml active ingredient)?
**A.** −15%

**Q.** And the “NF-κB % Inhibition” value (human NF-κB; 8 μg/ml active ingredient)?
**A.** −29%
